Measurements as given in patent US20090209535A1, “6-ETHER/THIOETHER-PURINES AS TOPOISOMERASE II CATALYTIC INHIBITORS AND THEIR USE IN THERAPY” (TOPOTARGET A/S, priority 2005, published 2009).
“And” between values parts separate entries of the source, which are not always exact repeats. Identical values can stand only once. Like-named read-outs stand apart in the source and are kept apart here.

How the values were obtained:
human SCLC NCI-H69 cells = test: Protection from etoposide-induced cytotoxicity, NCI-H69; type: cell-based
Experimental: Human small cell lung cancer (SCLC) OC—NYH (de Leij et al., 1985) and NCI-H69 cells (Cuttitta et al., 1981) were grown in RPMI-1640 medium supplemented with 10% fetal calf serum, 100 U/mL penicillin-streptomycin at 37° C. in a humidified atmosphere containing 5% CO2 in the dark.
Clonogenic assay was performed essentially as described in Jensen et al., 1993. […] Cells were then plated in 0.3% agar in 6 cm petri dishes with sheep red blood cells as feeder layer in triplicate, and were incubated under the same conditions as described above. Plates were counted after 3 weeks.

human SCLC OC—NYH cells = test: Alkaline elution assay (DNA breaks); type: cell-based
Experimental: Alkaline elution assay was performed as described in Kohn et al., 1976 with modifications as described in Sehested et al., 1998. Briefly, to assess the ability of NSC 35866 to protect against etoposide-induced DNA breaks, cells were incubated with increasing concentrations of NSC 35866 for 10 minutes, before 3 μM etoposide was added to the samples. The cells were then co-incubated with 3 μM etoposide along with the same concentrations of NSC 35866 for 60 minutes. Some samples contained no etoposide in order to assess whether NSC 35866 induced DNA breaks by itself. After incubation with drug, cells were lysed and the DNA fragments eluted. DNA in the experimental OC—NYH cells was metabolically labelled by ^14C-thymidine incorporation while DNA in the internal control L1210 cells was metabolically labelled by ^3H-thymidine incorporation.
FIG. 9 describes the results of studies of the ability of NSC 35866 to antagonise DNA breaks induced by etoposide in human SCLC OC—NYH cells in a dose dependent manner. Alkaline DNA elution was used to detect DNA fragmentation induced by 3 μM etoposide in the presence of increasing concentrations of NSC 35866 as described herein. H202 treated mouse leukemic L1210 cells were used as internal control for DNA fragmentation. The DNA of the experimental OC—NYH cells was ^14C-labelled while the DNA of the L1210 cells was 3H-labelled.

topoisomerase II α [1] = target: T1, topoisomerase II α (Homo sapiens, UniProt P11388); test: Topoisomerase II ATPase assay (coupled, NADH oxidation); type: biochemical; design: made in house; host or cells: yeast (over-expressing yeast cells)
T1 sequence (P11388 whole entry): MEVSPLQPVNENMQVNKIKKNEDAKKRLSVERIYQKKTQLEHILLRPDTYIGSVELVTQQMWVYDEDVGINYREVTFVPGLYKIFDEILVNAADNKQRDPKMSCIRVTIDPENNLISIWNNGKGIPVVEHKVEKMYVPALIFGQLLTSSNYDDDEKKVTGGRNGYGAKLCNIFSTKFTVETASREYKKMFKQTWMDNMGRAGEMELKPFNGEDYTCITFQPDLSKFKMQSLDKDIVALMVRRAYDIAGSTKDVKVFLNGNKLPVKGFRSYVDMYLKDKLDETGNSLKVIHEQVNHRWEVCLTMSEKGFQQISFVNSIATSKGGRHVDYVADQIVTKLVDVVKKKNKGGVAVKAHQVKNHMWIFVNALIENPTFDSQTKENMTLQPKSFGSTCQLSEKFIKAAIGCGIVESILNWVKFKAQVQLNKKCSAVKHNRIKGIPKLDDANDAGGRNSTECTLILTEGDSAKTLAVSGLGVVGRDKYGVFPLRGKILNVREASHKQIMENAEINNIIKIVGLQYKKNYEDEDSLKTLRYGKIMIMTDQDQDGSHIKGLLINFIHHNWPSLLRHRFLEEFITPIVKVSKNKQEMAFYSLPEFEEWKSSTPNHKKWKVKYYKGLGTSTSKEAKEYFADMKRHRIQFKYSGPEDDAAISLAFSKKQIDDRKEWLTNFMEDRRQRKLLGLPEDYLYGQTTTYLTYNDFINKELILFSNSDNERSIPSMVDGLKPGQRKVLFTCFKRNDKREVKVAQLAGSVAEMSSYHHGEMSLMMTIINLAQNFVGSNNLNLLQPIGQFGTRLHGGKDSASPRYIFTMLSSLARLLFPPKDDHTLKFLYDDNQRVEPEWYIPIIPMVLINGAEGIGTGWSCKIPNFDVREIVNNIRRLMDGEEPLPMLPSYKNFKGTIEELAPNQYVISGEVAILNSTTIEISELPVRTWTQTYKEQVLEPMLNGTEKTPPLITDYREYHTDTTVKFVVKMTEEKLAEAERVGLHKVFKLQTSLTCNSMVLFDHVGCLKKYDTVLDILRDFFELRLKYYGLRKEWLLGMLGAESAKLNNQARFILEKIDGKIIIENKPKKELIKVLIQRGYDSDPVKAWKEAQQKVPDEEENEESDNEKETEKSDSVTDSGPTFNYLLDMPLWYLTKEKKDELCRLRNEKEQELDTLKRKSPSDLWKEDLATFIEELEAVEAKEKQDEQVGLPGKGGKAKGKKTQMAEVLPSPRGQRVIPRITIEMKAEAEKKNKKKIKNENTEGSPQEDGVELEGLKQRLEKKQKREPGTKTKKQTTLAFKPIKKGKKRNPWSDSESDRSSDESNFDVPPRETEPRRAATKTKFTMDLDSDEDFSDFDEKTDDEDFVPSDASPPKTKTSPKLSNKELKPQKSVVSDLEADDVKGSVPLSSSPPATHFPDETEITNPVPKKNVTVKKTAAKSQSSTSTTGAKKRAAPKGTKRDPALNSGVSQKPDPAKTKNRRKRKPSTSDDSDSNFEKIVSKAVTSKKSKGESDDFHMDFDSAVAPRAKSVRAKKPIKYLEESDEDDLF
Experimental: The reaction was monitored spectrophotometrically at 340 nm using a Bio-Tek EL808 Ultra Micro plate Reader connected to a computer with KC4 Software installed (Bio-Tek Instruments, U.S.). The change in absorbance was related to ADP production using A340^1M=6220 cm^−1. […] The rate of ATP hydrolysis, V, was determined from the linear part of the curve.
The steady-state rate of ATP hydrolysis was determined using a coupled ATPase assay as described herein. […] Error bars represent SEM of two independent experiments each performed in duplicate.
The steady-state rate of ATP hydrolysis was determined as described in for FIG. 3 and as described herein. In this analysis, the rate of ATP hydrolysis in the absence of drug was set to one in all experiments. Error bars represent SEM of 2 or 3 independent experiments each preformed in duplicate.

topoisomerase II α [2] = target: T1, topoisomerase II α; test: Topoisomerase II retention on DNA/streptavidin beads (salt-stable complex); type: biochemical; design: made in house; host or cells: yeast (over-expressing yeast cells)
Experimental: An assay capable of measuring non-covalent complexes of topoisomerase II on closed circular DNA was performed as described in Morris et al., 2000, with modifications. When performing six reactions, 60 μL M280 streptavidin coated bead (Dynal A/S, Oslo, Norway) slurry corresponding to 600 μg beads was transferred to a 1.5 mL tube that was then placed in a Dynal MPC-E (magnetic particle concentrator) rack (Dynal A/S, Oslo, Norway) for 1 to 2 minutes until the beads had settled on the tube wall. The beads were then washed twice in the DNA binding solution supplied with the kilobase binding kit (Dynal A/S, Oslo, Norway) by repeating this step. Finally, the beads were re-suspended in 250 μL DNA binding solution. A preparation of biotin labelled plasmid DNA containing a 5-kb super coiled circular DNA molecule carrying 8 successive PNA (Peptide Nucleic Acid) linked biotin labels at one known position (pGeneGrip biotin blank vector, Gene Therapy Systems Inc., San Diego, Calif., USA) was made by mixing 220 μL distilled water and 30 μL biotinylated DNA. After mixing the beads and the DNA preparation, the sample was left overnight at room temperature under gentle agitation to assure optimal formation of the DynaBeads DNA complex. Next, the complex was washed twice in 480 μL wash buffer (10 mM TRIS-HCL, pH 7.5, 2 M NaCl, 1 mM EDTA), once in distilled water, and once in topoisomerase reaction buffer (10 mM TRIS-HCl, pH 7.9, 50 mM NaCl, 50 mM KCl, 5 mM MgCl2, 1 mM EDTA, […] BSA). Then, the beads were re-suspended in 600 μL topoisomerase II buffer and divided into 6 tubes. 100 μL reactions containing plasmid DNA coated DynaBeads, topoisomerase II buffer, 2 μg purified human topoisomerase […] and drugs were incubated for 30 minutes at 37° C. When included, ATP was present at 1 mM. […]
FIG. 7 describes the results of studies of the ability of NSC 35866 to stabilise a salt-stable complex of human topoisomerase II α on covalently closed circular DNA. Retention of salt-stable (to 2 M KCl) complexes of human topoisomerase II α on circular DNA attached to magnetic beads via biotin-streptavidin linkage was determined by eluting retained protein by adding running buffer containing 4% SDS followed by heating to 100° C. for 10 minutes. The amount of human topoisomerase II α protein retained was then determined by running the samples on 7% SDS-PAGE gels followed by straining with GelCode Blue Strain Reagent (Pierce, Rockford, Ill., USA): Lane 1, no drug; Lane 2, 200 μM ICRF-187; Lane 3, 30 μM NSC 35866; Lane 4, 100 μM NSC 35866; Lane 5, 300 μM NSC 35866; Lane 6, 1000 μM NSC 35866; Lane K, 2 μg human topoisomerase II α. […]

With `Nc1nc(SCCc2ccccc2)c2nc[nH]c2n1` [NSC 35866, 2-amino-6-(phenylethylthio)-purine] the “protection from etoposide-induced cytotoxicity, in words” value (human SCLC NCI-H69 cells) was “capable of protecting”, the “effect on DNA breaks induced by 3 μM etoposide, in words” value (shortened to “effect on DNA breaks induced”) (human SCLC OC—NYH cells; 30 μM, repeated assay) was “no detectable effect” and the “effect on DNA breaks induced” value (human SCLC OC—NYH cells; 100 μM) was “no detectable effect”. For the same molecule, the “effect on DNA breaks induced” value (human SCLC OC—NYH cells; 100 μM, repeated assay) was “no detectable effect”, the “effect on DNA breaks induced” value (human SCLC OC—NYH cells; 300 μM, repeated assay) was “partly antagonised” and the “effect on DNA breaks induced” value (human SCLC OC—NYH cells; 500 μM) was “partly antagonised”. The “effect on DNA breaks induced” value (human SCLC OC—NYH cells; 1000 μM) was “completely antagonised”, the “DNA breaks induced by the drug alone, in words” value (human SCLC OC—NYH cells; concentrations up to 1000 μM, no etoposide) was “does not induce detectable levels of DNA breaks” and the inhibition at 300 µM (topoisomerase II α [1]; 300 μM, in the presence of DNA, read-out: inhibition of the total ATPase activity) was 75%. The “inhibition of ATPase activity in the presence of DTT, in words” value (topoisomerase II α [1]; 10 mM DTT in the reaction buffer) was “could inhibit ATPase activity”, the IC50 (topoisomerase II α [1]; in the presence of DNA (DNA-stimulated), read-out: IC50, inhibition of ATPase activity) was 50 µM and 30 to 100 µM and the IC50 (topoisomerase II α [1]; without DNA, read-out: IC50, inhibition of DNA-independent ATPase activity) was 300 µM. For the same molecule, the “retention of topoisomerase II on DNA beads after 2 M KCl wash, in words” value (topoisomerase II α [2]; 30, 100, 300 and 1000 μM, with ATP) was “traps human topoisomerase II α as a salt-stable complex on circular closed DNA in a dose-dependent manner” and the “retention of topoisomerase II on DNA beads, in words” value (topoisomerase II α [2]; in the absence of ATP) was “only at 300 and 1000 μM”.
